ChEMBL document CHEMBL1139588, “Ketoheterocycle-based inhibitors of cathepsin K: a novel entry into the synthesis of peptidic ketoheterocycles” (Bioorg Med Chem Lett, 2005)
pIC50: −log10 of the molar value.

Columns and labels:
[1] = molecular target: T1, Cathepsin K (Homo sapiens, UniProt P43235); experiment: Inhibition of 10 uM Cbz-Phe-Arg-AMC binding to human cathepsin K by fluorescence assay
T1 sequence (P43235 whole entry): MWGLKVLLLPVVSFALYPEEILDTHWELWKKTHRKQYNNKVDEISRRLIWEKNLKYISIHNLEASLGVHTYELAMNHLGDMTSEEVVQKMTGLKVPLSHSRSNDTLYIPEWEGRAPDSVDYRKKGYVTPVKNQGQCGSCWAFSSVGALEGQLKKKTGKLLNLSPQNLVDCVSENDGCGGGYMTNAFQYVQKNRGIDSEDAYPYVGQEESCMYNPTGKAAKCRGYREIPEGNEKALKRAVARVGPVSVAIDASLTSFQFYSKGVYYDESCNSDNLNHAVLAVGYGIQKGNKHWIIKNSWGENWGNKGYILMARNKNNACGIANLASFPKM

[2] = molecular target: T2, Cathepsin K (Homo sapiens) (UniProt P43235); experiment: Percentage inhibition of 10 uM Cbz-Phe-Arg-AMC binding to human cathepsin K at 12.6 uM by fluorescence assay
T2 sequence (whole entry): T1 sequence (P43235 whole entry)

[3] = species on record: Homo sapiens; experiment: Ratio of inhibitory potency against cathepsins K and B using 10 uM Cbz-Phe-Arg-AMC in fluorescence assay
[4] = species on record: Homo sapiens; experiment: Ratio of inhibitory potency against cathepsins K and V using 2 uM Cbz-Phe-Arg-AMC in fluorescence assay
[5] = species on record: Homo sapiens; experiment: Ratio of inhibitory potency against cathepsins K and S using 10 uM Cbz-Phe-Arg-AM in fluorescence assay
[6] = molecular target: Cathepsin (L and K) (Homo sapiens) (UniProt P43235+P07711); experiment: Ratio of inhibitory potency against cathepsins L and K using 5 uM Cbz-Phe-Arg-AMC in fluorescence assay; format: protein assay
Sequence of Cathepsin (L and K) (Homo sapiens) (P07711 whole entry, looked up, one chain of several): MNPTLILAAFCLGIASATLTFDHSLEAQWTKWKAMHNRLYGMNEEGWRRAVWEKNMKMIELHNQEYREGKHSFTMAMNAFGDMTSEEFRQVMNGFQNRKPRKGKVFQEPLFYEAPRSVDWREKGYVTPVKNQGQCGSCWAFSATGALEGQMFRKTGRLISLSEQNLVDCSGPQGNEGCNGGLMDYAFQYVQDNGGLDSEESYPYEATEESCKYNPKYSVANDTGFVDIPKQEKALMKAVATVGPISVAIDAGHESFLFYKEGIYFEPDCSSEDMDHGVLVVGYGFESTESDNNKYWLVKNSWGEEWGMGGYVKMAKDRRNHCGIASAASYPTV

| SMILES | pIC50 [1] | inhibition [2] [%] | also measured |
| --- | --- | --- | --- |
| CCCC[C@H](NC(=O)O[C@@H](C)CC1CCCCC1)C(=O)c1nc(-c2ccccc2)cs1 | 5.15 |  |  |
| CCOC(=O)c1csc(C(=O)CNC(=O)O[C@@H](C)CC2CCCCC2)n1 |  | 0 |  |
| CCCOc1ccccc1C(=O)NCC(=O)c1nc(C(=O)OCC)cs1 | < 4.89 |  |  |
| CCCC[C@H](NC(=O)O[C@@H](C)CC1CCCCC1)C(=O)c1nnc(-c2ccccc2)o1 | 5.40 |  |  |
| CCCC[C@H](NC(=O)O[C@@H](C)CC1CCCCC1)C(=O)c1nccs1 | 5.51 |  |  |
| CCCC[C@H](NC(=O)OC(C(C)C)C(C)C)C(=O)c1ccccc1 |  | 2 |  |
| CCOC(=O)c1csc(C(=O)CNC(=O)[C@H](CC(C)C)NC(=O)OCc2ccccc2)n1 |  | 20 |  |
| CCCC[C@H](NC(=O)[C@H](CC(C)C)NC(=O)OCc1ccccc1)C(=O)c1nc(C(=O)OCC)cs1 | 4.89 |  |  |
| CCOC(=O)c1csc(C(=O)CNC(=O)OC(CC)Cc2ccccc2)n1 (stereo unspecified) |  | 0 |  |
| CCCC[C@H](NC(=O)O[C@@H](C)CC1CCCCC1)C(=O)c1nc(C)c(C(=O)OCC)s1 |  | 10 |  |
| CCCC[C@H](NC(=O)OC(Cc1ccccc1)C(C)C)C(=O)c1nc(C(=O)OCC)cs1 (stereo partly specified) |  | 28 |  |
| CCCC[C@H](NC(=O)O[C@@H](C)CC1CCCCC1)C(=O)c1noc(C)n1 | 5.09 |  |  |
| CCCC[C@H](NC(=O)OC(C(C)C)C(C)C)C(=O)c1cccs1 | 5.72 |  |  |
| CCCC[C@H](NC(=O)OC(CC)Cc1ccccc1)C(=O)c1nc(C(=O)OCC)cs1 (stereo partly specified) | < 4.89 |  |  |
| CCCC[C@H](NC(=O)OC(Cc1ccccc1)CC(C)C)C(=O)c1nc(C(=O)OCC)cs1 (stereo partly specified) |  | 31 |  |
| CCCC[C@H](NC(=O)O[C@@H](C)CC1CCCCC1)C(=O)c1nc(C(=O)OCC)cs1 | 6.64 |  | Ratio [3]: > 40; Ratio [4]: > 40; Ratio [5]: > 40; Ratio [6]: > 40 |
| CCCC[C@H](NC(=O)O[C@@H](C)CC1CCCCC1)C(=O)c1nc(C(F)(F)F)cs1 | 4.89 |  |  |
